Experimental data taken from patent US6642217B2, “Triterpenes having human antifungal and antiyeast activity” (Naturtek, LLC, priority 2000, dated 2003).

Columns and labels:
[1] = system: Trichophyton rubrum; test: Direct addition method, solid compound in Sabouraud dextrose agar; format: cell-based; parameters: key: +++: Maximum Fungal Growth; ++: Moderate Fungal Growth; +: Minimum Fungal Growth; +/−: Very Little Fungal Growth; −: No Fungal Growth; settings: 4 mg/mL of agar; 12th day after inoculation
Method: (§1) Direct addition method. Sabouraud dextrose agar was prepared according to the manufacturer's instructions and 5.0 ml was dispensed in each 100×25 mm tube. The tubes were autoclaved. To each tube containing 5.0 ml of liquid agar at 45° C., 20 mg of solid test compound was added, to give a final concentration of 4 mg/ml. The agar was solidified in slants. The fungal cultures were then innoculated. The slants were incubated at 25-28 ° C. for 10-12 days, and the growth of the fungus was recorded every second day. The results in Table 2 indicate growth at the 12th day of inoculation.

[2] = system: Microsporum audouinni; test: as above; format: cell-based, Microsporum audouinii; parameters: key to Fungal growth: +++: Maximum Fungal Growth; ++: Moderate Fungal Growth; +: Minimum Fungal Growth; +/−: Very little Fungal Growth; −: No Fungal Growth; settings: 4 mg/mL of agar; 12th day after inoculation
Procedure, shortened: (§2)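 Direct-addition agar test: compound (4 mg/ml final, added undissolved to molten Sabouraud dextrose agar) in slants, incubated 25-28° C. with growth noted on day 12.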

[3] = system: Epidermophyton floccosum; test: as above; format: cell-based; parameters: key: +++: Maximum Fungal Growth; ++: Moderate Fungal Growth; +: Minimum Fungal Growth; +/−: Very little Fungal Growth; −: No Fungal Growth; settings: 4 mg/mL of agar; 12th day after inoculation
Procedure, shortened: as §2

[4] = system: Microsporum canis; test: as above; format: cell-based; parameters: key: +++: Maximum Fungal Growth; ++: Moderate Fungal Growth; +: Minimum Fungal Growth; +/−: Very little Fungal Growth; −: No Fungal Growth; settings: 4 mg/mL of agar; 12th day after inoculation
Procedure, shortened: as §2

[5] = system: Pityrosporum ovale; test: as above; format: cell-based; parameters: key: +++: Maximum Fungal Growth; ++: Moderate Fungal Growth; +: Minimum Fungal Growth; +/−: Very little Fungal Growth; −: No Fungal Growth; settings: 4 mg/mL of agar; 12th day after inoculation
Procedure, shortened: as §2

[6] = system: Pityrosporum ovale; test: Direct addition into the Pityrosporum agar; format: cell-based; parameters: key to Pityrosporum ovale growth: +++: Maximum Growth; ++: Moderate Growth; +: Minimum Growth; +/−: Very Little Growth; −: No Growth; settings: for Pityrosporum ovale growth: 4 mg/ml in the agar, 18 hours after inoculation
Method: as §1, with “The slants were incubated at 25-28 ° C. for 10-12 days, and the growth of the fungus was recorded every second day. The results in Table 2 indicate growth at the 12th day of inoculation.” left out

[7] = system: Trichophyton rubrum; test: Direct addition method, solid compound in Sabouraud dextrose agar; format: cell-based; settings: against Trichophyton rubrum
Method: as §1

[8] = system: Microsporum audouinni; test: Agar dilution method, growth on Sabouraud dextrose agar slants; format: cell-based, Microsporum audouinii; parameters: key: +++: Maximum Fungal Growth; ++: Moderate Fungal Growth; +: Minimum Fungal Growth; +/−: Very little Fungal Growth; −: No Fungal Growth; settings: 12th day after inoculation
Procedure, shortened: (§3)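 In this agar dilution format, DMSO solutions of compound went into liquid Sabouraud dextrose agar (45 °C), which was slanted and inoculated. Incubation ran 10-12 days at 25-28 °C.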

[9] = system: Trichophyton tonsurans; test: Summary of anti-fungal assays (direct addition, agar dilution, liquid culture); format: cell-based; settings: stated in words (Tables 1a/1b, text to Table 5)
Method: (§4) This example summarizes the results of various other assays of the anti-fungal activity of betulin derivatives. Table 5 summarizes results using different assay methods—direct addition, agar dilution, and direct addition to liquid culture, as disclosed in the previous three Examples. In some cases, only one type of assay was done with a compound. In other cases, the compound was tested by multiple assays.

[10] = system: Epidermophyton floccosum; test: as above; format: cell-based; settings: stated in words (Tables 1a/1b, text to Table 5); listed as betulin-3,28-diphthalate
Method: as §4

[11] = system: Microsporum audouinii; test: as above; format: cell-based; settings: stated in words (Tables 1a/1b, text to Table 5)
Method: as §4

[12] = system: Microsporum gypseum; test: as above; format: cell-based; settings: stated in words (Tables 1a/1b, text to Table 5)
Method: as §4

[13] = system: Microsporum canis; test: Agar dilution method, growth on Sabouraud dextrose agar slants; format: cell-based; parameters: key: +++: Maximum Fungal Growth; ++: Moderate Fungal Growth; +: Minimum Fungal Growth; +/−: Very little Fungal Growth; −: No Fungal Growth; settings: 12th day after inoculation
Procedure, shortened: as §3

[14] = system: Pityrosporum ovale; test: as above; format: cell-based; parameters: key: +++: Maximum Fungal Growth; ++: Moderate Fungal Growth; +: Minimum Fungal Growth; +/−: Very little Fungal Growth; −: No Fungal Growth; settings: 12th day after inoculation
Procedure, shortened: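 Readout: fungal growth, noted on alternate days across a 10-12 day incubation at 25-28 °C. Test slants were Sabouraud dextrose agar with compound incorporated from DMSO before solidification.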

[15] = system: Trichophyton rubrum; test: as above; format: cell-based; parameters: key: +++: Maximum Fungal Growth; ++: Moderate Fungal Growth; +: Minimum Fungal Growth; +/−: Very little Fungal Growth; −: No Fungal Growth; settings: 12th day after inoculation
Procedure, shortened: as §3

[16] = system: Microsporum gypseum; test: as above; format: cell-based; parameters: key: +++: Maximum Fungal Growth; ++: Moderate Fungal Growth; +: Minimum Fungal Growth; +/−: Very little Fungal Growth; −: No Fungal Growth; settings: 12th day after inoculation
Procedure, shortened: as §3

[17] = system: Trichophyton mentagrophyte; test: as above; format: cell-based, Trichophyton mentagrophytes; parameters: key to Fungal growth: +++: Maximum Fungal Growth; ++: Moderate Fungal Growth; +: Minimum Fungal Growth; +/−: Very little Fungal Growth; −: No Fungal Growth; settings: 12th day after inoculation
Procedure, shortened: as §3

[18] = system: Trichophyton tonsuran; test: as above; format: cell-based, Trichophyton tonsurans; parameters: key: +++: Maximum Fungal Growth; ++: Moderate Fungal Growth; +: Minimum Fungal Growth; +/−: Very little Fungal Growth; −: No Fungal Growth; settings: 12th day after inoculation
Procedure, shortened: as §3

[19] = system: Epidermophyton floccosum; test: as above; format: cell-based; parameters: key to Fungal growth: +++: Maximum Fungal Growth; ++: Moderate Fungal Growth; +: Minimum Fungal Growth; +/−: Very little Fungal Growth; −: No Fungal Growth; settings: for Fungal growth: 12th day after inoculation
Procedure, shortened: as §3

[20] = system: Trichophyton mentagrophytes; test: Direct addition method, solid compound in Sabouraud dextrose agar; format: cell-based; parameters: key: +++: Maximum Fungal Growth; ++: Moderate Fungal Growth; +: Minimum Fungal Growth; +/−: Very little Fungal Growth; −: No Fungal Growth; settings: 4 mg/mL of agar; 12th day after inoculation
Procedure, shortened: as §2

[21] = system: Trichophyton rubrum; test: as above; format: cell-based; parameters: key: +++: Maximum Fungal Growth; ++: Moderate Fungal Growth; +: Minimum Fungal Growth; +/−: Very little Fungal Growth; −: No Fungal Growth; settings: 4 mg/mL of agar; 12th day after inoculation
Procedure, shortened: as §2

[22] = system: Microsporum gypseum; test: as above; format: cell-based; parameters: key: +++: Maximum Fungal Growth; ++: Moderate Fungal Growth; +: Minimum Fungal Growth; +/−: Very little Fungal Growth; −: No Fungal Growth; settings: 4 mg/mL of agar; 12th day after inoculation
Procedure, shortened: as §2

[23] = system: Trichophyton tonsuran; test: as above; format: cell-based, Trichophyton tonsurans; parameters: key: +++: Maximum Fungal Growth; ++: Moderate Fungal Growth; +: Minimum Fungal Growth; +/−: Very little Fungal Growth; −: No Fungal Growth; settings: 4 mg/mL of agar; 12th day after inoculation
Method: as §1

[24] = system: Microsporum canis; test: as above; format: cell-based; settings: against Microsporum canis
Method: as §1

[25] = system: Trichophyton mentagrophytes; test: Direct addition to liquid culture method, optical density at 600 nm; format: cell-based; settings: 25, 50 and 100 μg/ml; 12 days
Method: Direct addition to liquid culture method. Sabouraud dextrose broth was prepared according to the manufacturer's instructions, and 7.0 ml was dispensed into 100×25 mm tubes and autoclaved. To each tube containing 7.0 ml of liquid broth, the test compounds dissolved in DMSO were added to final concentrations of 25, 50, and 100 μg/ml. The tubes were then inoculated with 150 μl of a fungus suspension and incubated at 25-28° C. for 10-12 days. Growth was measured every second day by measuring optical density at 600 nm against a blank containing sterile broth.

C=C(C)C1CCC2(COC(=O)C(N)C(C)C)CCC3(C)C(CCC4C5(C)CCC(OC(=O)C(N)C(C)C)C(C)(C)C5CCC43C)C12 [Betulin-3,28-di-L-valine]
Fungal growth [1]: +/−
Fungal growth [2]: +
Fungal growth [3]: −
Fungal growth [4]: +
Fungal growth [5]: −
Pityrosporum ovale growth [6]: +/−
best anti-fungal or anti-yeast activity by the direct addition method [7]: against Trichophyton rubrum

C=C(C)[C@@H]1CC[C@]2(COC(=O)c3ccccc3C(=O)O)CC[C@]3(C)[C@H](CC[C@@H]4[C@@]5(C)CC[C@H](OC(=O)c6ccccc6C(=O)O)C(C)(C)[C@@H]5CC[C@]43C)[C@@H]12 [Betulin-3,28-diphthalate]
Fungal growth ([8]; 125 μg/ml): ++
Fungal growth ([8]; 250 μg/ml): +
Fungal growth ([8]; 500 μg/ml): −
Fungal growth ([8]; 1000 μg/ml): −
Active against Trichophyton tonsurans [9]: Trichophyton tonsurans
Active against Epidermophyton floccosum [10]: against Epidermophyton floccosum
Active against Microsporum audouinii [11]: Microsporum audouinii
Active against Microsporum gypseum [12]: Microsporum gypseum
Fungal growth ([13]; 125 μg/ml): ++
Fungal growth ([13]; 250 μg/ml): +
Fungal growth ([13]; 500 μg/ml): −
Fungal growth ([13]; 1000 μg/ml): −
Fungal growth ([14]; 125 μg/ml): +++
Fungal growth ([14]; 250 μg/ml): +++
Fungal growth ([14]; 500 μg/ml): +++
Fungal growth ([14]; 1000 μg/ml): ++
Fungal growth ([15]; 125 μg/ml): ++
Fungal growth ([15]; 250 μg/ml): ++
Fungal growth ([15]; 500 μg/ml): +
Fungal growth ([15]; 1000 μg/ml): −
Fungal growth ([16]; 125 μg/ml): ++
Fungal growth ([16]; 250 μg/ml): +
Fungal growth ([16]; 500 μg/ml): −
Fungal growth ([16]; 1000 μg/ml): −
Fungal growth ([17]; 125 μg/ml): ++
Fungal growth ([17]; 250 μg/ml): +
Fungal growth ([17]; 500 μg/ml): −
Fungal growth ([17]; 1000 μg/ml): −
Fungal growth ([18]; 125 μg/ml): +++
Fungal growth ([18]; 250 μg/ml): ++
Fungal growth ([18]; 500 μg/ml): +/−
Fungal growth ([18]; 1000 μg/ml): −
Fungal growth ([19]; 125 μg/ml): ++
Fungal growth ([19]; 250 μg/ml): ++
Fungal growth ([19]; 500 μg/ml): +/−
Fungal growth ([19]; 1000 μg/ml): −
best antifungal or anti-yeast activity by the agar dilution method ([19]; against Epidermophyton floccosum): against Epidermophyton floccosum

C=C(C)[C@@H]1CC[C@]2(COC(=O)/C=C\C(=O)O)CC[C@]3(C)[C@H](CC[C@@H]4[C@@]5(C)CC[C@H](O)C(C)(C)[C@@H]5CC[C@]43C)[C@@H]12 [Betulin-28-maleate]
Fungal growth [2]: ++
Fungal growth [3]: −
Fungal growth [20]: ++
Fungal growth [4]: −
Fungal growth [5]: −
Fungal growth [21]: ++
Fungal growth [22]: +++
Fungal growth [23]: ++
best anti-fungal or anti-yeast activity by the direct addition method [24]: against Microsporum canis

C=C(C)[C@@H]1CC[C@]2(C)CC[C@@]3(C)C(CCC4[C@@]5(C)CC[C@H](O)C(C)(C)C5CC[C@]43C)C12 (stereo partly drawn) [Lupeol, lup-20(29)-ene-3β-ol]
Growth inhibition in liquid culture (optical density, FIG. 1) [25]: inhibited the growth
Fungal growth [2]: +
Fungal growth [3]: −
Fungal growth [4]: +
Fungal growth [5]: −
Fungal growth [21]: +
Pityrosporum ovale growth [6]: +

C[C@@H]1[C@H](O)[C@@H](C)/C=C/C=C/CC/C=C/C=C/C=C/C=C/C(O[C@H]2O[C@H](C)[C@@H](O)[C@H](N)[C@@H]2O)CC2O[C@](O)(CC(O)C(O)CCC(O)CC(O)CC(O)CC(=O)O[C@H]1C)CC(O)C2C(=O)O (stereo partly drawn) [Nystatin, reference compound]
Fungal growth ([8]; 125 μg/ml): −
Fungal growth ([8]; 250 μg/ml): −
Fungal growth ([8]; 500 μg/ml): −
Fungal growth ([8]; 1000 μg/ml): −
Fungal growth [1]: +/−
Fungal growth ([13]; 125 μg/ml): +
Fungal growth ([13]; 250 μg/ml): +/−
Fungal growth ([13]; 500 μg/ml): −
Fungal growth ([13]; 1000 μg/ml): −
Fungal growth ([14]; 125 μg/ml): +
Fungal growth ([14]; 250 μg/ml): +/−
Fungal growth ([14]; 500 μg/ml): −
Fungal growth ([14]; 1000 μg/ml): −
Fungal growth ([15]; 125 μg/ml): +
Fungal growth ([15]; 250 μg/ml): +
Fungal growth ([15]; 500 μg/ml): +/−
Fungal growth ([15]; 1000 μg/ml): −
Fungal growth ([16]; 125 μg/ml): +
Fungal growth ([16]; 250 μg/ml): +/−
Fungal growth ([16]; 500 μg/ml): −
Fungal growth ([16]; 1000 μg/ml): −
Fungal growth [2]: −
Fungal growth ([17]; 125 μg/ml): +
Fungal growth ([17]; 250 μg/ml): +
Fungal growth ([17]; 500 μg/ml): −
Fungal growth ([17]; 1000 μg/ml): −
Fungal growth [3]: −
Fungal growth [4]: −
Fungal growth [5]: −
Fungal growth ([18]; 125 μg/ml): +
Fungal growth ([18]; 250 μg/ml): +/−
Fungal growth ([18]; 500 μg/ml): −
Fungal growth ([18]; 1000 μg/ml): −
Growth inhibition of Pityrosporum ovale by the direct addition method ([6]; 4 mg/ml): inhibits growth
Pityrosporum ovale growth [6]: +/−
Fungal growth ([19]; 125 μg/ml): +/−
Fungal growth ([19]; 250 μg/ml): −
Fungal growth ([19]; 500 μg/ml): −
Fungal growth ([19]; 1000 μg/ml): −
